Source: ChEMBL document CHEMBL4680246, “Design, synthesis and biological evaluation of novel O-carbamoyl ferulamide derivatives as multi-target-directed ligands for the treatment of Alzheimer's disease” (Eur J Med Chem, 2020)

Tests used:
Mus musculus [1] = experiment: Improvement in brain cholinergic activity in scopolamine-induced mouse model of amnesia assessed as change in ChAT vitality at 6 mg/kg (reference value: 28.8 U/g); format: functional
Mus musculus [2] = experiment: Improvement in cognitive impairment in scopolamine-induced mouse model of amnesia assessed as change in spontaneous alteration at 6 mg/kg by Y-maze test (reference value: 40.8%); format: functional
[3] = Effect on spontaneous alteration behavior in mouse assessed as change in total arm entry at 6 mg/kg by Y-maze test; format: ADME, organism-based; settings: in vivo
Cholinesterase [4] = target: T1, Cholinesterase (Homo sapiens, UniProt P06276); experiment: Inhibition of human serum BuChE assessed as residual activity at 0.1 times IC50 using acetylcholine iodide as substrate measured after dilution by Ellman's method relative to control
T1 sequence (P06276 whole entry): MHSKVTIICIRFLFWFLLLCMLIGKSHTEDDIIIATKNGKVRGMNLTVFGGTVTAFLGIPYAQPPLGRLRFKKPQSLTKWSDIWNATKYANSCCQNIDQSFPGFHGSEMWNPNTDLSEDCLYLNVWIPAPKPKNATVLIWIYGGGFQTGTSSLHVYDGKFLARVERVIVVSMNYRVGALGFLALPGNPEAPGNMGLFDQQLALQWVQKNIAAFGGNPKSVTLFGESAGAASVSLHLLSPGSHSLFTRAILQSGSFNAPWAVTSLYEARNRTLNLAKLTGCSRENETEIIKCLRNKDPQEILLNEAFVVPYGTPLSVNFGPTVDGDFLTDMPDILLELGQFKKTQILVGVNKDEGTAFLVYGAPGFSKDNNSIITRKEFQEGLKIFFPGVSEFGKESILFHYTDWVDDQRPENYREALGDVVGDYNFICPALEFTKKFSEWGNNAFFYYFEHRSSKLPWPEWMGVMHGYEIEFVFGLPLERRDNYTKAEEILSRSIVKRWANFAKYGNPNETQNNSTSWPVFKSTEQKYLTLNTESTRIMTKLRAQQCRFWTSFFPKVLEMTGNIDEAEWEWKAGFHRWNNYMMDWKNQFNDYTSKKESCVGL

Cholinesterase [5] = target: T1, Cholinesterase; experiment: Pseudo-irreversible inhibition of human serum BuChE assessed as residual activity at 0.1 times IC50 using acetylcholine iodide as substrate measured 240 mins post dilution by Ellman's method relative to control
Cholinesterase [6] = target: T1, Cholinesterase; experiment: Inhibition of human serum BuChE assessed as residual activity at IC50 using acetylcholine iodide as substrate measured by Ellman's method relative to control
[7] = Drug uptake in iv dosed mouse thalamus measured after 60 mins in presence of (E)-4-(3-(3,4-dihydroisoquinolin-2(1H)-yl)-3-oxoprop-1-en-1-yl)-2-methoxyphenyl ethyl(methyl)carbamate by PET imaging analysis; format: ADME, organism-based; settings: in vivo
[8] = Drug uptake in iv dosed mouse cortex measured after 60 mins by PET imaging analysis; format: ADME, organism-based; settings: in vivo, 1 h
[9] = Drug uptake in iv dosed mouse thalamus measured after 60 mins by PET imaging analysis; format: ADME, organism-based; settings: in vivo, 1 h
[10] = Drug uptake in iv dosed mouse brain measured up to 60 mins in presence of (E)-4-(3-(3,4-dihydroisoquinolin-2(1H)-yl)-3-oxoprop-1-en-1-yl)-2-methoxyphenyl ethyl(methyl)carbamate by PET imaging analysis; format: ADME, organism-based; settings: in vivo
[11] = Drug uptake in iv dosed mouse hypothalamus measured after 60 mins in presence of rivastigmine by PET imaging analysis; format: ADME, organism-based; settings: in vivo, 1 h
[12] = Drug uptake in iv dosed mouse liver measured after 30 mins by PET imaging analysis; format: ADME, organism-based; settings: in vivo, 0.5 h
[13] = Drug uptake in iv dosed mouse brainstem measured after 60 mins by PET imaging analysis; format: ADME, organism-based; settings: in vivo, 1 h
[14] = Drug uptake in iv dosed mouse cerebellum measured after 60 mins by PET imaging analysis; format: ADME, organism-based; settings: in vivo, 1 h
[15] = Drug uptake in iv dosed mouse central gray substance of midbrain measured after 60 mins by PET imaging analysis; format: ADME, organism-based; settings: in vivo, 1 h
[16] = Drug uptake in iv dosed mouse cerebellum measured after 60 mins in presence of (E)-4-(3-(3,4-dihydroisoquinolin-2(1H)-yl)-3-oxoprop-1-en-1-yl)-2-methoxyphenyl ethyl(methyl)carbamate by PET imaging analysis; format: ADME, organism-based; settings: in vivo
[17] = Drug uptake in iv dosed mouse striatum measured after 60 mins in presence of rivastigmine by PET imaging analysis; format: ADME, organism-based; settings: in vivo, 1 h
[18] = Drug uptake in iv dosed mouse brainstem measured after 60 mins in presence of rivastigmine by PET imaging analysis; format: ADME, organism-based; settings: in vivo, 1 h
[19] = Drug uptake in iv dosed mouse central gray substance of midbrain measured after 60 mins in presence of rivastigmine by PET imaging analysis; format: ADME, organism-based; settings: in vivo, 1 h
[20] = Drug uptake in iv dosed mouse amygdala measured after 60 mins in presence of rivastigmine by PET imaging analysis; format: ADME, organism-based; settings: in vivo, 1 h
[21] = Drug uptake in iv dosed mouse brain measured after 5 mins by PET imaging analysis; format: ADME, organism-based; settings: in vivo
[22] = Drug uptake in iv dosed mouse spleen measured after 60 mins by PET imaging analysis; format: ADME, organism-based; settings: in vivo, 1 h
[23] = Drug uptake in iv dosed mouse striatum measured after 60 mins by PET imaging analysis; format: ADME, organism-based; settings: in vivo, 1 h
[24] = Drug uptake in iv dosed mouse brain measured at 2 mins by PET imaging analysis; format: ADME, organism-based; settings: in vivo
[25] = Drug uptake in iv dosed mouse hypothalamus measured after 60 mins in presence of (E)-4-(3-(3,4-dihydroisoquinolin-2(1H)-yl)-3-oxoprop-1-en-1-yl)-2-methoxyphenyl ethyl(methyl)carbamate by PET imaging analysis; format: ADME, organism-based; settings: in vivo
[26] = Drug uptake in iv dosed mouse central gray substance of midbrain measured after 60 mins in presence of (E)-4-(3-(3,4-dihydroisoquinolin-2(1H)-yl)-3-oxoprop-1-en-1-yl)-2-methoxyphenyl ethyl(methyl)carbamate by PET imaging analysis; format: ADME, organism-based; settings: in vivo
[27] = Drug uptake in iv dosed mouse brainstem measured after 60 mins in presence of (E)-4-(3-(3,4-dihydroisoquinolin-2(1H)-yl)-3-oxoprop-1-en-1-yl)-2-methoxyphenyl ethyl(methyl)carbamate by PET imaging analysis; format: ADME, organism-based; settings: in vivo
[28] = Drug uptake in iv dosed mouse amygdala measured after 60 mins in presence of (E)-4-(3-(3,4-dihydroisoquinolin-2(1H)-yl)-3-oxoprop-1-en-1-yl)-2-methoxyphenyl ethyl(methyl)carbamate by PET imaging analysis; format: ADME, organism-based; settings: in vivo
[29] = Drug uptake in iv dosed mouse lung measured after 5 mins by PET imaging analysis; format: ADME, organism-based; settings: in vivo
[30] = Drug uptake in iv dosed mouse cortex measured after 60 mins in presence of (E)-4-(3-(3,4-dihydroisoquinolin-2(1H)-yl)-3-oxoprop-1-en-1-yl)-2-methoxyphenyl ethyl(methyl)carbamate by PET imaging analysis; format: ADME, organism-based; settings: in vivo
[31] = Drug uptake in iv dosed mouse heart measured after 5 mins by PET imaging analysis; format: ADME, organism-based; settings: in vivo
[32] = Drug uptake in iv dosed mouse amygdala measured after 60 mins by PET imaging analysis; format: ADME, organism-based; settings: in vivo, 1 h
[33] = Drug uptake in iv dosed mouse brain measured after 60 mins by PET imaging analysis; format: ADME, organism-based; settings: in vivo, 1 h
[34] = Drug uptake in iv dosed mouse hippocampus measured after 60 mins by PET imaging analysis; format: ADME, organism-based; settings: in vivo, 1 h
[35] = Drug uptake in iv dosed mouse cerebellum measured after 60 mins in presence of rivastigmine by PET imaging analysis; format: ADME, organism-based; settings: in vivo, 1 h
[36] = Drug uptake in iv dosed mouse thalamus measured after 60 mins in presence of rivastigmine by PET imaging analysis; format: ADME, organism-based; settings: in vivo, 1 h
[37] = Drug uptake in iv dosed mouse hippocampus measured after 60 mins in presence of rivastigmine by PET imaging analysis; format: ADME, organism-based; settings: in vivo, 1 h
[38] = Drug uptake in iv dosed mouse brain measured up to 60 mins in presence of rivastigmine by PET imaging analysis; format: ADME, organism-based; settings: in vivo, 1 h
[39] = Drug uptake in iv dosed mouse hippocampus measured after 60 mins in presence of (E)-4-(3-(3,4-dihydroisoquinolin-2(1H)-yl)-3-oxoprop-1-en-1-yl)-2-methoxyphenyl ethyl(methyl)carbamate by PET imaging analysis; format: ADME, organism-based; settings: in vivo
[40] = Drug uptake in iv dosed mouse hypothalamus measured after 60 mins by PET imaging analysis; format: ADME, organism-based; settings: in vivo, 1 h
[41] = Drug uptake in iv dosed mouse striatum measured after 60 mins in presence of (E)-4-(3-(3,4-dihydroisoquinolin-2(1H)-yl)-3-oxoprop-1-en-1-yl)-2-methoxyphenyl ethyl(methyl)carbamate by PET imaging analysis; format: ADME, organism-based; settings: in vivo
[42] = Drug uptake in iv dosed mouse cortex measured after 60 mins in presence of rivastigmine by PET imaging analysis; format: ADME, organism-based; settings: in vivo, 1 h

For `CCN(C)C(=O)Oc1cccc([C@H](C)N(C)C)c1` [RIVASTIGMINE], the Activity (Mus musculus [1]) was 55.3 U/g, the Activity (Mus musculus [2]) was 60.2% and the Activity [3] was “Non-Toxic”. The Activity (Cholinesterase [4]) was 53.2%, the Activity (Cholinesterase [5]) was 73.3% and the Activity (Cholinesterase [6]) was 48.3%.

In the case of `CCN(C)C(=O)Oc1ccc(/C=C/C(=O)N2CCc3ccccc3C2)cc1O[11CH3]`, the Drug uptake [7] is reported as “Not Active”, the Drug uptake [8] is reported as “Active” and the Drug uptake [9] is reported as “Active”. For the same molecule, the Drug uptake [10] was “Not Active”, the Drug uptake [11] was “Not Active” and the Drug uptake [12] was 14.46 %ID/cc. The Drug uptake [13] was “Active”, the Drug uptake [14] was “Active” and the Drug uptake [15] was “Active”. The Drug uptake [16] was “Not Active”, the Drug uptake [17] was “Not Active” and the Drug uptake [18] was “Not Active”. For the same molecule, the Drug uptake [19] was “Not Active”, the Drug uptake [20] was “Not Active” and the Drug uptake [21] was 6.21 %ID/cc. For the same molecule, the Drug uptake [22] was 11.49 %ID/cc, the Drug uptake [23] was -9 %ID/cc and the Drug uptake [24] was 8.76 %ID/cc. The Drug uptake [25] was “Not Active”, the Drug uptake [26] was “Not Active” and the Drug uptake [27] was “Not Active”. The Drug uptake [28] was “Not Active”, the Drug uptake [29] was 4.68 %ID/cc and the Drug uptake [30] was “Not Active”. The Drug uptake [31] was 11.8 %ID/cc, the Drug uptake [32] was “Active” and the Drug uptake [33] was “Active”. The Drug uptake [34] was -9 %ID/cc, the Drug uptake [35] was “Not Active” and the Drug uptake [36] was “Not Active”. For the same molecule, the Drug uptake [37] was “Not Active”, the Drug uptake [38] was “Not Active” and the Drug uptake [39] was “Not Active”. The Drug uptake [40] was “Active”, the Drug uptake [41] was “Not Active” and the Drug uptake [42] was “Not Active”.
